These results are taken from patent US6825354B2 (Wyeth Holdings Corporation, priority 1999, dated 2004).

Counter-ions that a name gives are not always drawn.

The term IC50 denotes the midpoint of a concentration-inhibition curve. In general, melting point refers to the temperature, or range, at which the solid turns liquid.

TNF-α converting enzyme (TACE), sequence (P78536 215-824): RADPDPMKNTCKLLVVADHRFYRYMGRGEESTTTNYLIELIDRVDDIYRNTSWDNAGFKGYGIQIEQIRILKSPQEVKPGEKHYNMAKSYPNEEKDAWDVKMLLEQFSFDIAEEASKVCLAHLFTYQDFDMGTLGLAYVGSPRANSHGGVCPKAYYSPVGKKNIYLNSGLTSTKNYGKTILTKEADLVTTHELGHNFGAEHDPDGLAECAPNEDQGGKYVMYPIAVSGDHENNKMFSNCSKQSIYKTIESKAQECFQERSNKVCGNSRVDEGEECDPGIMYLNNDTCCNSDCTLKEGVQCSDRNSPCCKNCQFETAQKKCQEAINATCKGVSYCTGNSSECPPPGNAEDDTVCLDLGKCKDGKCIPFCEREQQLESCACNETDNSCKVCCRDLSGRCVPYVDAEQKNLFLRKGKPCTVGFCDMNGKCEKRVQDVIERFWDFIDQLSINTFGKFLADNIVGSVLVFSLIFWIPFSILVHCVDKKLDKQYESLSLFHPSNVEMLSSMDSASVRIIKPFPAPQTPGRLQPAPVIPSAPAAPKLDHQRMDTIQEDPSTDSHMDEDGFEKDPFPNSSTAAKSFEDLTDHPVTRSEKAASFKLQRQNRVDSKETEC

In one data set the target is T1, MMP-1 (Homo sapiens, UniProt P03956).
T1 sequence (P03956 100-469): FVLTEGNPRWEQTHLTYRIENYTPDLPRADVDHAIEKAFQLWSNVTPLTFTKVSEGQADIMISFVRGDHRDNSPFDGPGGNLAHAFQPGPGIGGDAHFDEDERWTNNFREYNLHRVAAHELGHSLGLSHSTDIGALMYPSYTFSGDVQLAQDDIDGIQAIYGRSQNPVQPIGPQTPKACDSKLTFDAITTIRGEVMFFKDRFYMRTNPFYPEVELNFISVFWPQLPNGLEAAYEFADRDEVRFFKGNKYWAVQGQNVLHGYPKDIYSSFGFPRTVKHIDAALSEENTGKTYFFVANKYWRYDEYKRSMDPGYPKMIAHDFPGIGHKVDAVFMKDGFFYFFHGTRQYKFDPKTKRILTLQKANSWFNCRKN
Nature of the data set: MMP-1 inhibition, thiopeptide or fluorescent peptide substrate. The format is biochemical. The settings on record: Table 1, first part; read-out: MMP1 IC50. On the procedure:
The enzyme activity is measured by the rate of the color increase. The thiopeptide substrate is made up fresh as a 20 mM stock in 100% DMSO and the DTNB is dissolved in 100% DMSO as a 100 mM stock and stored in the dark at room temperature. Both the substrate and DTNB are diluted together to 1 mM with substrate buffer (50 mM HEPES pH 7.5, 5 mM CaCl2) before use. The stock of enzyme is diluted with buffer (50 mM HEPES, pH 7.5, 5 mM CaC12, 0.02% Brij) to the desired final concentration.
Alternatively, a fluorescent peptide substrate is used. In this test procedure, the peptide substrate contains a fluorescent group and a quenching group. Upon cleavage of the substrate by an MMP, the fluorescence that is generated is quantitated on the fluorescence plate reader. The assay is run in HCBC assay buffer (50 mM HEPES, pH 7.0, 5 mM Ca^+2, 0.02% Brij, 0.5% Cysteine), with human recombinant MMP-1, MMP-9, or MMP-13. The substrate is dissolved in methanol and stored frozen in 1 mM aliquots. For the assay, substrate and enzymes are diluted in HCBC buffer to the desired concentrations. Compounds are added to the 96 well plate containing enzyme and the reaction is started by the addition of substrate.
For either the thiopeptide or fluorescent peptide test procedures, the slope of the line is calculated and represents the reaction rate. […] The mean (x±sem) of the control rate is calculated and compared for statistical significance (p<0.05) with drug-treated rates using Dunnett's multiple comparison test.
On to “Quinoline-3-carboxylic Acid [5-(4-but-2-ynyloxy-benzenesulfinyl)-5-hydroxycarbamoyl-pentyl]-amide [Example 53]”, for which the IC50 amounted to 4000 nM. For “9H-Xanthene-9-carboxylic acid [5-(4-but-2-ynyloxy-benzenesulfinyl)-5-hydroxycarbamoyl-pentyl]-amide [Example 59]”, the IC50 amounted to 3400 nM. Regarding “1-Methyl-1H-pyrrole-2-carboxylic acid {[5-(4-but-2-ynyloxy-benzenesulfinyl)-5-hydroxy-carbamoylpentyl-carbamoyl]-methyl}-amide [Example 61]”, the IC50 was found to be 5600 nM. In the case of “2-(4-But-2-ynyloxy-benzenesulfinyl)-6-(4-thiophen-2-yl-butyrylamino)-hexanoic acid hydroxyamide [Example 58]”, the IC50 came to 4600 nM.

As for “N-[5-(4-But-2-ynyloxy-benzenesulfinyl)-5-hydroxycarbamoyl-pentyl]-2-phenethyl-benzamide [Example 56]”, the IC50 was 3900 nM.

Regarding “2-(4-But-2-ynyloxy-benzenesulfinyl)-6-[2-(3,4-dichloro-phenyl)-acetylamino]-hexanoic acid hydroxyamide [Example 57]”, the IC50 was 4600 nM.

A further data set addresses TNF-α converting enzyme (TACE) (Homo sapiens, UniProt P78536). Nature of the data set: TACE inhibition, fluorescent peptidyl substrate. The format is biochemical.
Details: not given
On the procedure:
[…] The reaction is initiated by addition of a fluorescent peptidyl substrate (final concentration 100 μM) to each well and then shaking on a shaker for 5 sec.
The reaction is read (excitation 340 nm, emission 420 nm) for 10 min. and the increase in fluorescence over time is plotted as a linear line. The slope of the line is calculated and represents the reaction rate.
The mean (x±sem) of the control rate is calculated and compared for statistical significance (p<0.05) with drug-treated rates using Dunnett's multiple comparison test.
Compound `CC#CCOc1ccc([S+]([O-])[C@H](C(=O)NO)c2ccc(OC)cc2)cc1` (single isomer, unassigned) [Example 78] gave an IC50 of 17.6 nM.

The data set is the same for the next values; noted with them: Table 1, first part; read-out: TACE IC50.
For `CC#CCOc1ccc(S(=O)(=O)C(CCCCNC(=O)CNC(=O)Cc2ccc(Cl)c(Cl)c2)C(=O)NO)cc1` (stereo not drawn) [Example 65, 2-(4-But-2-ynyloxy-benzenesulfonyl)-6-{2-[2-(3,4-dichloro-phenyl)-acetylamino]-acetylamino}-hexanoic acid hydroxyamide], the half-maximal inhibitory concentration (IC50) worked out at 52.1 nM. In the case of `CC#CCOc1ccc(S(=O)(=O)C(CCCCNC(=O)Cc2ccc(Cl)c(Cl)c2)C(=O)NO)cc1` (stereo not drawn) [Example 37, 2-(4-But-2-ynyloxy-benzenesulfonyl)-6-[2-(3,4-dichloro-phenyl)-acetylamino]-hexanoic acid hydroxyamide], the IC50 amounted to 43.7 nM. Same read-out and setting: next, “Quinoline-3-carboxylic Acid [5-(4-but-2-ynyloxy-benzenesulfinyl)-5-hydroxycarbamoyl-pentyl]-amide [Example 53]”: 15.2 nM; “9H-Xanthene-9-carboxylic acid [5-(4-but-2-ynyloxy-benzenesulfinyl)-5-hydroxycarbamoyl-pentyl]-amide [Example 59]”: 22.6 nM.

For “Quinoline-2-carboxylic acid [5-(4-but-2-ynyloxy-benzenesulfinyl)-5-hydroxycarbamoyl-pentyl]-amide [Example 54]”, the IC50 worked out at 27.2 nM.

Take `CC#CCOc1ccc(SC(CCCCNC(=O)CNC(=O)Cc2ccc(Cl)c(Cl)c2)C(=O)NO)cc1` (stereo not drawn) [Example 43, 2-(4-but-2-ynyloxy-phenylsulfanyl)-6-{2-[2-(3,4-dichloro-phenyl)-acetylamino]-acetylamino}-hexanoic acid hydroxyamide]: the half-maximal inhibitory concentration (IC50) is 32.5 nM.

In the case of “1-Methyl-1H-pyrrole-2-carboxylic acid {[5-(4-but-2-ynyloxy-benzenesulfinyl)-5-hydroxy-carbamoylpentyl-carbamoyl]-methyl}-amide [Example 61]”, the IC50 turned out to be 22.5 nM. Same read-out and setting: next, `CC#CCOc1ccc([S+]([O-])C(CCCCNC(=O)c2nccc3ccccc23)C(=O)NO)cc1` (stereo not drawn) [Example 31, Isoquinoline-1-carboxylic acid [5-(4-but-2-ynyloxy-benzenesulfinyl)-5-hydroxycarbamoyl-pentyl]-amide]: 28.3 nM; “N-{[5-(4-But-2-ynyloxy-phenylsulfanyl)-5-hydroxy-carbamoyl-pentylcarbamoyl]-methyl}-2-phenethyl-benzamide [Example 46]”: 84.2 nM; “2-(4-But-2-ynyloxy-benzenesulfinyl)-6-[2-(1,3-dioxo-1,3-dihydro-isoindol-2-yl)-acetylamino]-hexanoic acid hydroxyamide [Example 55]”: 38.5 nM.

With “2-(4-But-2-ynyloxy-benzenesulfinyl)-6-(4-thiophen-2-yl-butyrylamino)-hexanoic acid hydroxyamide [Example 58]”, the IC50 was 20.1 nM. The same measure, in the same setting: the figure for “N-[5-(4-But-2-ynyloxy-benzenesulfinyl)-5-hydroxycarbamoyl-pentyl]-2-phenethyl-benzamide [Example 56]” is 21.9 nM; for “2-(4-But-2-ynyloxy-benzenesulfinyl)-6-[2-(3,4-dichloro-phenyl)-acetylamino]-hexanoic acid hydroxyamide [Example 57]” it is 24.4 nM. Same read-out and setting: next, “N-[5-(4-But-2-ynyloxy-phenylsulfanyl)-5-hydroxycarbamoyl-pentyl]-2-phenethyl-benzamide [Example 15]”: 138 nM.

Still in this data set, the particulars now being: Table 1, second part; footnote a: % @ 10 μM.
`CC#CCOc1ccc(SC(C(=O)NO)c2ccc3ccccc3c2)cc1` (stereo not drawn) [Example 114, 2-{[4-(2-Butynyloxy)phenyl]sulfanyl}-2-(2-naphthyl)-N-hydroxyacetamide]: the “TACE % @ 10 μM” value turned out to be 40.90%. With `CC#CCOc1ccc(S(=O)(=O)C(C(=O)NO)c2ccc(-c3cccs3)cc2)cc1` (stereo not drawn) [Example 91, 2-{[4-(2-butynyloxy)phenyl]sulfonyl}-N-hydroxy-2-[4-(2-thienyl)phenyl]acetamide], the “TACE % @ 10 μM” value is listed as 48%.

The data set is the same for the next values; noted with them: Table 1, second part; footnote a: IC50 (nM); read-out: TACE IC50.
For `CC#CCOc1ccc([S+]([O-])[C@@H](C(=O)NO)c2ccc(-c3cccs3)cc2)cc1` (stereo partly drawn) [Example 90, (2R)-2-{[4-(2-butynyloxy)phenyl]sulfinyl}-N-hydroxy-2-[4-(2-thienyl)phenyl]ethanamide], the IC50 was 682 nM.

Regarding `CC#CCOc1ccc(SC(C(=O)NO)c2ccc(F)cc2)cc1` (stereo not drawn) [Example 95], the IC50 amounted to 108 nM.

System in the next data set: not given
Test: not given
Details: not given
`CC#CCOc1ccc(OCCCC(=O)NO)cc1` [Example 10, 4-(4-But-2-ynyloxy-phenoxy)-N-hydroxy-butyramide] had a melting point of 123 to 125 °C. For the compound `CC#CCOc1ccc(S(=O)(=O)C(C(=O)NO)C2CCSCC2)cc1` (stereo not drawn) [Example 123, 2-{[4-(2-Butynyloxy)phenyl]sulfonyl}-N-hydroxy-2-tetrahydro-2H-thiopyran-4yl-acetamide], the melting point lay in the range of 175 to 177 °C.

In the case of `CC#CCOc1ccc(S(=O)(=O)C(C(=O)NO)C2CCN(C(C)=O)CC2)cc1` (stereo not drawn) [Example 121, 2-(1-acetyl-4-piperidinyl)-2-{[4-(2-butynyloxy)phenyl]sulfonyl}-N-hydroxyacetamide], the melting point is 103 °C. On the same count and under the same terms, next, `CC#CCOc1ccc(OCCC(=O)NO)cc1` [Example 9, 3-(4-But-2-ynyloxy-phenoxy)-N-hydroxy-propionamide]: 116 to 118 °C. Still for that read-out and setting: the figure for `CC#CCOc1ccc([S@@+]([O-])[C@@H](CCCCCC)C(=O)NO)cc1` [Example 8, (S)-2-[(S)-[4-(2-Butynyloxy)phenylsulfinyl)]-N-hydroxyoctanamide] is 112.2 °C; for `CC#CCOc1ccc(SC(C)C(=O)NO)cc1` (stereo not drawn) [Example 4, 2-(4-Buty-2-ynyloxy-phenylsulfanyl)-N-hydroxy-propionamide] it is 102 to 104 °C; for `CC#CCOc1ccc(SC(CCCCCC)C(=O)NO)cc1` (stereo not drawn) [Example 6, 2-(4-But-2-ynyloxy-phenylsulfanyl)-octanoic Acid Hydroxamide] it is 125 °C. The same measure, in the same setting: the figure for `CC#CCOc1ccc(OCC(=O)NO)cc1` [Example 11, 2-(4-But-2-ynyloxy-phenoxy)-N-hydroxy-acetamide] is 130 to 132 °C; for `CC#CCOc1ccc(S(=O)(=O)C(C)(Cc2cccnc2)C(=O)NO)cc1` (stereo not drawn) (as salt: hydrochloride) [Example 3, 2-(4Buty-2-ynyloxy-phenylsulfonyl)-N-hydroxy-2-methyl-3-pyridin-3-ylpropionamide] it is 154 to 156 °C. In turn, `CC#CCOc1ccc(S(=O)(=O)C(C)(Cc2ccc(OCCN3CCCCC3)cc2)C(=O)NO)cc1` (stereo not drawn) (as salt: hydrochloride) [Example 1, 2-(4-But-2-ynyloxy-benzenesulfonyl)-N-hydroxy-2-methyl-3-[4-(2-piperidin-1-yl-ethoxy)-phenyl]-propionamide] displayed a melting point of 114 to 116 °C. Consider `CC#CCOc1ccc(S(=O)(=O)C(C)(Cc2ccc(-c3ccccc3)cc2)C(=O)NO)cc1` (stereo not drawn) [Example 2, 3-Biphenyl-4-yl-2-(4-Buty-2-ynyloxy-phenylsulfonyl)-N-hydroxy-2-methyl-propionamide], for which the melting point fell in the range of 92 to 94 °C.
